Measured values as given in patent publication US7935722B2 (Eli Lilly and Company, priority 2005, dated 2011).
Where two headings read alike, the source gives them in different places.

Legend:
[1] = target: T1, human AR (androgen receptor) (Homo sapiens, UniProt P10275); test: Steroid hormone nuclear receptor binding assay, AR binding
T1 construct: expressed in transfected cells; host or cells: 293 cells (293-AR lysate)
T1 sequence (P10275 1-920): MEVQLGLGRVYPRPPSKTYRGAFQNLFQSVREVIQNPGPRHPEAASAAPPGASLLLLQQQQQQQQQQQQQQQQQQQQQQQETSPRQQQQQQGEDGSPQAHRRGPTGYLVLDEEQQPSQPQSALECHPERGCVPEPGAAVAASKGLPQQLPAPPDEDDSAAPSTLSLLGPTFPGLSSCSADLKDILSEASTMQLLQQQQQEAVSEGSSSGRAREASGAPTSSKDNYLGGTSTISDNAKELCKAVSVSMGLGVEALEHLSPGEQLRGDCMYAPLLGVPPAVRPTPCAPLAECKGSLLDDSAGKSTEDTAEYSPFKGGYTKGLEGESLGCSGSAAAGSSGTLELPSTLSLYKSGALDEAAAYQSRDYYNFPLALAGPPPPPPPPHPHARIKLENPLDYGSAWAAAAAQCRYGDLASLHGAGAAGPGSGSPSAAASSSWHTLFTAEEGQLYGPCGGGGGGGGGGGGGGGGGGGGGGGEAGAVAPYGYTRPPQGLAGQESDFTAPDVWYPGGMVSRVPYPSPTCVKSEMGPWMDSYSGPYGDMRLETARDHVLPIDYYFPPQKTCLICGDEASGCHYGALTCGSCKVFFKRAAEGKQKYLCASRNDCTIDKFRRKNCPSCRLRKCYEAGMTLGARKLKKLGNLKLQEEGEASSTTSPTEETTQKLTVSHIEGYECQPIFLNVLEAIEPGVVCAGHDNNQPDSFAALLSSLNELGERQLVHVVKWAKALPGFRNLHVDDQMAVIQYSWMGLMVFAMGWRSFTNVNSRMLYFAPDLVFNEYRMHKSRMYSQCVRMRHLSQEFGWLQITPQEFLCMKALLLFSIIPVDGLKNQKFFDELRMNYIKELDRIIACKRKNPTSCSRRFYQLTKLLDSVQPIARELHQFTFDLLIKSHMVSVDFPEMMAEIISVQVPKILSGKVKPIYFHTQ
Method in brief: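 Competition binding with lysates of 293 cells overexpressing human AR, [3H]-methyltrienolone tracer, compounds from about 0.01 nM to 10 μM, overnight at 4 °C; non-specific binding set with 500 nM methyltrienolone. Bound tracer counted by scintillation after charcoal-dextran separation; IC50 converted to Ki by Cheng-Prusoff using Kd from saturation binding.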

[2] = target: T2, human androgen receptor (AR) (Homo sapiens, UniProt P10275); test: C2C12 AR/ARE reporter assay; type: cell-based
T2 construct: expressed in transfected cells; host or cells: mouse myoblast C2C12 cells, transiently co-transfected
T2 sequence (P10275 1-920): T1 sequence (P10275 1-920)
Method in brief: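 Mouse C2C12 myoblasts co-transfected with AR/ARE reporter were plated in charcoal-stripped serum and treated for 48 h with compound from about 0.01 nM to 10 μM. Luciferase activity gave EC50 by 4-parameter logistic fit. Efficacy is expressed as % of maximal stimulation by 10 nM methyltrienolone.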

[3] = C2C12, read-out: C2C12 % Efficacy
[4] = average of n trials, read-out: AR binding Ki
[5] = C2C12 AR/ARE reporter assay, average of n trials, read-out: C2C12 % Efficacy
[6] = C2C12 AR/ARE reporter assay, average of n trials, read-out: C2C12 EC50

SMILES | Ki [1] | EC50 [2] | Emax [2, 3] | Ki [1, 4] | Emax [2, 5] | EC50 [2, 6]
Cc1nc(-c2ccc3c(c2)c2c(n3Cc3cccc(F)c3)CC[C@@H](NC(=O)C(C)C)C2)sc1C [Example 129] | 196 nM | 73.6 nM | 65.5% | – | – | –
CC(C)C(=O)N[C@@H]1CCc2c(c3cc(-c4nncs4)ccc3n2Cc2cccc(F)c2)C1 [Example 127, (R)-N-[9-(3-Fluorobenzyl)-6-[1,3,4]thiadiazole-2-yl-2,3,4,9-tetrahydro-1H-carbazol-3-yl]isobutyramide] | – | – | – | 10.4 nM | 72.2% | 21 nM
CC(C)C(=O)N[C@@H]1CCc2c(c3cc(-c4nnc(N)s4)ccc3n2Cc2cccc(F)c2)C1 [Example 126, (R)-N-[6-(5-Amino[1,3,4]thiadiazol-2-yl)-9-(3-fluorobenzyl)-2,3,4,9-tetrahydro-1H-carbazol-3-yl]isobutyramide] | 19 nM | 31.3 nM | 87% | – | – | –
CC(C)C(=O)NC1CCc2c(c3cc(C#N)ccc3n2Cc2cccc(N)c2)C1 (stereo not drawn) [Example 90, N-[9-(3-Amino-benzyl)-6-cyano-2,3,4,9-tetrahydro-1H-carbazol-3-yl]-isobutyramide] | 30.5 nM | 123 nM | 67.6% | – | – | –
CC(C)C(=O)NC1CCc2c(c3cc(C#N)c(Cl)cc3n2Cc2cccc(F)c2)C1 (stereo not drawn) [Example 118, N-[7-Chloro-6-cyano-9-(3-fluoro-benzyl)-2,3,4,9-tetrahydro-1H-carbazol-3-yl]-isobutyramide] | 5.9 nM | 31.7 nM | 124% | – | – | –
CC[C@@H](C)C(=O)NC1CCc2c(c3cc(Br)ccc3n2Cc2cccc(F)c2)C1 (stereo partly drawn) [Example 171] | – | – | – | 8.2 nM | 63.5% | 411 nM
CO/N=C/c1ccc2c(c1)c1c(n2Cc2csc(C)n2)CC[C@@H](NC(=O)C(C)C)C1 [Example 212, (R)-N-[6-(Methoxyimino-methyl)-9-(2-methyl-thiazol-4-ylmethyl)-2,3,4,9-tetrahydro-1H-carbazol-3-yl]-isobutyramide] | 16.7 nM | 7.8 nM | 90.4% | – | – | –
O=C(N[C@@H]1CCc2c(c3cc(/C=N/O)ccc3n2Cc2cccc(F)c2)C1)C1CC1 [Example 203, (R)-Cyclopropanecarboxylic acid[9-(3-fluoro-benzyl)-6-(hydroxyimino-methyl)-2,3,4,9-tetrahydro-1H-carbazol-3-yl]-amide] | – | – | – | 12.3 nM | 73.1% | 20.2 nM
CC(C)C(=O)NC1CCc2c(c3cc(Cl)ccc3n2Cc2ccc(O)cc2)C1 (stereo not drawn) [Example 103, N-[6-Chloro-9-(4-hydioxy-benzyl)-2,3,4,9-tetrahydro-1H-carbazol-3-yl]-isobutyramide] | – | – | – | 51.4 nM | 32.8% | 293 nM
CC(C)C(=O)NC1CCc2c(c3cc(C#N)ccc3n2Cc2cncs2)C1 (stereo not drawn) [Example 159, N-(6-Cyano-9-thiazol-5-ylmethyl-2,3,4,9-tetrahydro-1H-carbazol-3-yl)-isobutyramide] | 34.4 nM | 35.8 nM | 80.9% | – | – | –
CO/N=C/c1ccc2c(c1)c1c(n2Cc2cccc(F)c2)CCC(NC(=O)C2CC2)C1 (stereo not drawn) [Example 202, Cyclopropanecarboxylic acid[9-(3-fluorobenzyl)-6-(methoxyimino-methyl)-2,3,4,9-tetrahydro-1H-carbazol-3-yl]-amide] | 4.7 nM | 1.5 nM | 90.5% | – | – | –
CC(C)C(=O)NC1CCc2c(c3cc(C#N)ccc3n2Cc2ccccc2N(C)C)C1 (stereo not drawn) [Example 114, N-[6-Cyano-9-furan-(2-dimethylamino-benzyl)-2,3,4,9-tetrahydro-1H-carbazol-3-yl]-isobutyramide] | 20.8 nM | 98.7 nM | 118% | – | – | –
CCNc1ccccc1Cn1c2c(c3cc(C#N)ccc31)CC(NC(=O)C(C)C)CC2 (stereo not drawn) [Example 112, N-[6-Cyano-9-(2-ethylamino-benzyl)-2,3,4,9-tetrahydro-1H-carbazol-3-yl]-isobutyramide] | 12.7 nM | 27.2 nM | 101% | – | – | –
CC(C)C(=O)NC1CCc2c(c3cc(C#N)ccc3n2Cc2nccs2)C1 (stereo not drawn) [Example 149, N-(6-Cyano-9-thiazol-2-ylmethyl-2,3,4,9-tetrahydro-1H-carbazol-3-yl)-isobutyramide] | – | – | – | 18 nM | 91.4% | 17.6 nM
COC(=O)c1ccc2c(c1)c1c(n2Cc2cccc(F)c2)CC[C@@H](NC(=O)C(C)C)C1 [Example 187, (R)-9-(3-fluorobenzyl)-6-isobutyrylamino-6,7,8,9-tetrahydro-5H-carbazole-3-carboxylic acid methyl ester] | 2.3 nM | 2.4 nM | 77.8% | – | – | –
COc1ccc2c(c1)c1c(n2Cc2ccccc2)CCC(NC(=O)C(C)C)C1 (stereo not drawn) [Example 67, N-(9-Benzyl-6-methoxy-2,3,4,9-tetrahydro-1H-carbazol-3-yl)-isobutyramide] | 6.2 nM | 18.6 nM | 96.9% | – | – | –
CON(C)C(=O)NC1CCc2c(c3cc(C#N)ccc3n2Cc2cccc(F)c2)C1 (stereo not drawn) [Example 180, 3-[6-Cyano-9-(3-fluorobenzyl)-2,3,4,9-tetrahydro-1H-carbazol-3-yl]-1-methoxy-1-methyl-urea] | 4.6 nM | 2.2 nM | 97% | – | – | –
COC(=O)NC1CCc2c(c3cc(OC(F)(F)F)ccc3n2Cc2cccc(F)n2)C1 (stereo not drawn) [Example 164] | – | – | – | 42.3 nM | 41.8% | 1230 nM
CC(C)C(=O)N[C@@H]1CCc2c(c3cc(C#N)ccc3n2Cc2ccccc2N)C1 (single isomer, unassigned) [Example 110, R-N-[9-(2-Amino-benzyl)-6-cyano-2,3,4,9-tetrahydro-1H-carbazol-3-yl]-isobutyramide] | 4.8 nM | 1.8 nM | 110% | – | – | –
CC(=O)c1ccc2c(c1)c1c(n2Cc2cccc(F)c2)CC[C@@H](NC(=O)C(C)C)C1 [Example 191, (R)-N-[6-Acetyl-9-(3-fluoro-benzyl)-2,3,4,9-tetrahydro-1H-carbazol-3-yl]-isobutyramide] | 3.3 nM | 1.2 nM | 91.2% | – | – | –
CC(C)C(=O)N[C@@H]1CCc2c(c3cc(C#N)ccc3n2Cc2ccccn2)C1 [Example 161, (R)-N-(6-cyano-9-pyridin-2-ylmethyl-2,3,4,9-tetrahydro-1H-carbazol-3-yl)-isobutyramide] | 6.8 nM | 3.1 nM | 95.7% | – | – | –
CN(C)S(=O)(=O)NC1CCc2c(c3cc(C#N)ccc3n2Cc2cccc(F)c2)C1 (stereo not drawn) [Example 213, N-[6-Cyano-9-(3-fluoro-benzyl)-2,3,4,9-tetrahydro-1H-carbazol-3-yl]-N′,N′-dimethylmethanesulfamide] | 3.2 nM | 40.2 nM | 95.4% | – | – | –
CO/N=C/c1ccc2c(c1)c1c(n2Cc2cccc(F)c2)CC[C@@H](NC(=O)C(C)C)C1 [Example 201, (R)-N-[9-(3-Fluorobenzyl)-6-(methoxyimino-methyl)-2,3,4,9-tetrahydro-1H-carbazol-3-yl]-isobutyramide] | – | – | – | 2.9 nM | 79.9% | 5 nM
CC(C)C(=O)NC1CCc2c(c3cc(-c4ccc(F)nc4)ccc3n2Cc2cccc(F)c2)C1 (stereo not drawn) [Example 135] | – | – | – | 20.4 nM | 66% | 62.3 nM
O=C(NC1CCc2c(c3cc(Br)ccc3n2Cc2cccc(F)c2)C1)C1CC1 (stereo not drawn) [Example 170, Cyclopropanecarboxylic acid [6-bromo-9-(3-fluoro-benzyl)-2,3,4,9-tetrahydro-1H-carbazol-3-yl]-amide] | 5.9 nM | 22.4 nM | 67.2% | – | – | –
Cc1ncc(-c2ccc3c(c2)c2c(n3Cc3cccc(F)c3)CCC(NC(=O)C(C)C)C2)cn1 (stereo not drawn) [Example 136] | 13.8 nM | 0.7 nM | 90.4% | – | – | –
CC(C)C(=O)NC1CCc2c(c3cc(C#N)ccc3n2Cc2cccs2)C1 (stereo not drawn) [Example 158, N-(6-Cyano-9-thiophen-2-ylmethyl-2,3,4,9-tetrahydro-1H-carbazol-3-yl)-isobutyramide] | 3.1 nM | 4.5 nM | 124% | – | – | –
